Read-outs that look alike come from different tables or passages of the source. Each block holds one compound with its values, some of them ahead of it.
What was measured:
[1] = molecular target: T1, tyrosinase (Agaricus bisporus, UniProt C7FF04); assay: Tyrosinase inhibitory activity using L-DOPA as substrate; assay type: biochemical, mushroom; details: read-out: Inhibition Rate at 64 μM (%)
Protocol: Compounds c1~c29 were tested for their tyrosinase inhibitory activities according to previous reports. Each compound was dissolved in DMSO and diluted to different concentrations. Tyrosinase and L-DOPA were dissolved in PBS solution (50 mM, pH 6.8). To 140 μL of tyrosinase (final concentration: 66.7 U/mL) solution, 10 μL of compound was added and incubated for 5 min at 25 °C, followed by the addition of 50 µL of L-DOPA (final concentration: 2 mM). Then, absorbance of the mixture was read at 475 nm. The inhibitory activity of each compound was calculated using DMSO as a blank control.
Target sequence in this assay (C7FF04 2-392): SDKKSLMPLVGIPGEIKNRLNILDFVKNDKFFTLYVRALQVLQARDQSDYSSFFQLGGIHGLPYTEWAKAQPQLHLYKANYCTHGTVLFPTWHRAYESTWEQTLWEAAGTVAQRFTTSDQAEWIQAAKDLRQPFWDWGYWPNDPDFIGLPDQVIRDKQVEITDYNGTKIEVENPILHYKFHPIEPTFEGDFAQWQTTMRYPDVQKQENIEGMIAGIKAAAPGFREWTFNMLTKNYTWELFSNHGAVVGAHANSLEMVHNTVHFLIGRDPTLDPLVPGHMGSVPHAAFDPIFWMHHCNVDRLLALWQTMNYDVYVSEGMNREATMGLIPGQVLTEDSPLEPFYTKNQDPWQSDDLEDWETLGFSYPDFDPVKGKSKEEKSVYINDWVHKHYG

[2] = molecular target: T1, tyrosinase; assay: Inhibition kinetic study (enzyme and substrate kinetics, Lineweaver–Burk); assay type: biochemical, mushroom; details: c27 0~4 μM
Protocol: The kinetics studies were carried out using the same experimental method as described above. For enzyme kinetics, the absorbance of the mixture containing different concentrations of tyrosinase (final concentration: 66.7 U/mL) and compound c27 (0, 2, 3, and 4 μM) was recorded at 475 nm, respectively. For substrate kinetics, the absorbance of the mixture containing different concentrations of L-DOPA (final concentration: 2, 4, 6 and 8 mM) and compound c27 (0, 2, 3 and 4 μM) was recorded at 475 nm, respectively.
Target sequence in this assay (C7FF04 2-392): as above

[3] = molecular target: T1, tyrosinase; assay: Circular dichroism spectra, secondary structure contents of tyrosinase; set-up: purchased Sigma-Aldrich; species or system mushroom
Protocol: The CD spectra of tyrosinase-compound c27 mixture were measured according to previous reports. To 190 µL of tyrosinase solution (final concentration: 64.65 μM) in PBS, 10 µL of compound c27 (1.28, 2.56, and 3.84 mM) was added and incubated for 5 min. Then, the CD spectra were measured at 195~250 nm at room temperature.
Target sequence in this assay (C7FF04 1-392): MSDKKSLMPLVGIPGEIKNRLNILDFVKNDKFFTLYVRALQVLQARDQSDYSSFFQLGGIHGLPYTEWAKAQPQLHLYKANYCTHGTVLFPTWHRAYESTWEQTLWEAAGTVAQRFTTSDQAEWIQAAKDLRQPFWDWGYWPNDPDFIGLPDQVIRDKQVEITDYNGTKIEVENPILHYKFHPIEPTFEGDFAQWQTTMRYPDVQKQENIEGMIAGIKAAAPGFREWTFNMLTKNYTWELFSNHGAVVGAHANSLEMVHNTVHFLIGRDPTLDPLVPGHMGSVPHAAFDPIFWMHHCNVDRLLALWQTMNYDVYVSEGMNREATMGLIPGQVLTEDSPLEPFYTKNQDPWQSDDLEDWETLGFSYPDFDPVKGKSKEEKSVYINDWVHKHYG

[4] = molecular target: T1, tyrosinase; assay: Three-dimensional fluorescence spectra of tyrosinase–compound mixture; set-up: species or system mushroom; details: 3D fluorescence
Protocol: The 3D fluorescence spectra of tyrosinase-compound c27 mixture was measured according to previous reports. To 3 mL of tyrosinase solution (final concentration: 168 μM) in PBS, 10 µL of compound c27 (2 mM) was added and incubated for 5 min. Then, the 3D fluorescence spectra analyses were conducted in room temperature. The excitation and emission wavelengths were 200–600 nm and the slit width was 2.5 nm.
Target sequence in this assay (C7FF04 2-392): as the sequence (C7FF04 2-392) above

[5] = molecular target: T1, tyrosinase; assay: Fluorescence quenching of tyrosinase (Stern–Volmer); assay type: binding, mushroom; set-up: purchased Sigma-Aldrich
Protocol: An amount of 1 μL of compound c27 solution was titrated into 2 mL of tyrosinase and incubated for 5 min. […] The quenching mechanism and parameters were investigated by the Stern–Volmer equation.
Target sequence in this assay (C7FF04 1-392 limits assumed): as the sequence (C7FF04 1-392) above

[6] = compound concentration 64 μM, L-DOPA substrate

- inhibition at 64 µM [1, 6]: 12 ± 1%
SMILES: C=CCc1ccc(OC(=O)C=Cc2ccccc2)c(OC)c1 [c1, 4-allyl-2-methoxyphenyl cinnamate]

- inhibition at 64 µM [1, 6]: 12 ± 0.3%
SMILES: C=CCc1ccc(OC(=O)/C=C/c2ccccc2C)c(OC)c1 [c2, 4-allyl-2-methoxyphenyl (E)-3-(o-tolyl)acrylate]

- inhibition at 64 µM [1, 6]: 39 ± 3%
SMILES: C=CCc1ccc(OC(=O)/C=C/c2cccc(C)c2)c(OC)c1 [c3, 4-allyl-2-methoxyphenyl (E)-3-(m-tolyl)acrylate]

- inhibition at 64 µM [1, 6]: 15 ± 1%
SMILES: C=CCc1ccc(OC(=O)/C=C/c2ccc(C)cc2)c(OC)c1 [c4, 4-allyl-2-methoxyphenyl (E)-3-(p-tolyl)acrylate]

- inhibition at 64 µM [1, 6]: 29 ± 3%
SMILES: C=CCc1ccc(OC(=O)/C=C/c2ccccc2Cl)c(OC)c1 [c5, 4-allyl-2-methoxyphenyl (E)-3-(2-chlorophenyl)acrylate]

- inhibition at 64 µM [1, 6]: 17 ± 2%
SMILES: C=CCc1ccc(OC(=O)/C=C/c2cccc(Cl)c2)c(OC)c1 [c6, 4-allyl-2-methoxyphenyl (E)-3-(3-chlorophenyl)acrylate]

SMILES: C=CCc1ccc(OC(=O)/C=C/c2ccc(Cl)cc2)c(OC)c1 [c7, 4-allyl-2-methoxyphenyl (E)-3-(4-chlorophenyl)acrylate]
- inhibition at 64 µM [1]: 24 ± 1%

- inhibition at 64 µM [1, 6]: 17 ± 3%
SMILES: C=CCc1ccc(OC(=O)/C=C/c2ccccc2F)c(OC)c1 [c8, 4-allyl-2-methoxyphenyl (E)-3-(2-fluorophenyl)acrylate]

- inhibition at 64 µM [1, 6]: 17 ± 3%
SMILES: C=CCc1ccc(OC(=O)/C=C/c2cccc(F)c2)c(OC)c1 [c9, 4-allyl-2-methoxyphenyl (E)-3-(3-fluorophenyl)acrylate]

- inhibition at 64 µM [1, 6]: 17 ± 1%
SMILES: C=CCc1ccc(OC(=O)/C=C/c2ccc(F)cc2)c(OC)c1 [c10, 4-allyl-2-methoxyphenyl (E)-3-(4-fluorophenyl)acrylate]

- inhibition at 64 µM [1, 6]: 10 ± 0.4%
SMILES: C=CCc1ccc(OC(=O)/C=C/c2ccccc2Br)c(OC)c1 [c11, 4-allyl-2-methoxyphenyl (E)-3-(2-bromophenyl)acrylate]

- inhibition at 64 µM [1, 6]: 3 ± 0.8%
SMILES: C=CCc1ccc(OC(=O)/C=C/c2cccc(Br)c2)c(OC)c1 [c12, 4-allyl-2-methoxyphenyl (E)-3-(3-bromophenyl)acrylate]

- inhibition at 64 µM [1, 6]: 13 ± 1%
SMILES: C=CCc1ccc(OC(=O)/C=C/c2ccc(Br)cc2)c(OC)c1 [c13, 4-allyl-2-methoxyphenyl (E)-3-(4-bromophenyl)acrylate]

- inhibition at 64 µM [1, 6]: 67.6%
SMILES: C=CCc1ccc(OC(=O)/C=C/c2cccc(O)c2)c(OC)c1 [c14, 4-allyl-2-methoxyphenyl (E)-3-(3-hydroxyphenyl)acrylate]

- inhibition at 64 µM [1, 6]: 76.1%
SMILES: C=CCc1ccc(OC(=O)/C=C/c2ccc(O)cc2)c(OC)c1 [c15, 4-allyl-2-methoxyphenyl (E)-3-(4-hydroxyphenyl)acrylate]

- inhibition at 64 µM [1, 6]: 5 ± 0.1%
SMILES: C=CCc1ccc(OC(=O)/C=C/c2ccccc2[N+](=O)[O-])c(OC)c1 [c16, 4-allyl-2-methoxyphenyl (E)-3-(2-nitrophenyl)acrylate]

- inhibition at 64 µM [1, 6]: 9 ± 0.8%
SMILES: C=CCc1ccc(OC(=O)/C=C/c2cccc([N+](=O)[O-])c2)c(OC)c1 [c17, 4-allyl-2-methoxyphenyl (E)-3-(3-nitrophenyl)acrylate]

- inhibition at 64 µM [1, 6]: 14 ± 1%
SMILES: C=CCc1ccc(OC(=O)/C=C/c2ccc([N+](=O)[O-])cc2)c(OC)c1 [c18, 4-allyl-2-methoxyphenyl (E)-3-(4-nitrophenyl)acrylate]

- inhibition at 64 µM [1, 6]: 3 ± 0.2%
SMILES: C=CCc1ccc(OC(=O)/C=C/c2ccccc2OC)c(OC)c1 [c19, 4-allyl-2-methoxyphenyl (E)-3-(2-methoxyphenyl)acrylate]

- inhibition at 64 µM [1, 6]: 3 ± 0.1%
SMILES: C=CCc1ccc(OC(=O)/C=C/c2cccc(OC)c2)c(OC)c1 [c20, 4-allyl-2-methoxyphenyl (E)-3-(3-methoxyphenyl)acrylate]

- inhibition at 64 µM [1, 6]: 7 ± 0.9%
SMILES: C=CCc1ccc(OC(=O)/C=C/c2ccc(OC)cc2)c(OC)c1 [c21, 4-allyl-2-methoxyphenyl (E)-3-(4-methoxyphenyl)acrylate]

- inhibition at 64 µM [1, 6]: 6 ± 0.5%
SMILES: C=CCc1ccc(OC(=O)/C=C/c2ccccc2C(F)(F)F)c(OC)c1 [c22, 4-allyl-2-methoxyphenyl (E)-3-(2-(trifluoromethyl)phenyl)acrylate]

- inhibition at 64 µM [1, 6]: 5 ± 0.2%
SMILES: C=CCc1ccc(OC(=O)/C=C/c2cccc(C(F)(F)F)c2)c(OC)c1 [c23, 4-allyl-2-methoxyphenyl (E)-3-(3-(trifluoromethyl)phenyl)acrylate]

- inhibition at 64 µM [1, 6]: 2 ± 0.1%
SMILES: C=CCc1ccc(OC(=O)/C=C/c2ccc(C(F)(F)F)cc2)c(OC)c1 [c24, 4-allyl-2-methoxyphenyl (E)-3-(4-(trifluoromethyl)phenyl)acrylate]

- inhibition at 64 µM [1, 6]: 26 ± 1%
SMILES: C=CCc1ccc(OC(=O)/C=C/c2ccc(N(C)C)cc2)c(OC)c1 [c25, 4-allyl-2-methoxyphenyl (E)-3-(4-(dimethylamino)phenyl)acrylate]

- inhibition at 64 µM [1, 6]: 47 ± 1%
SMILES: C=CCc1ccc(OC(=O)/C=C/c2ccc(O)c(OC)c2)c(OC)c1 [c26, 4-allyl-2-methoxyphenyl (E)-3-(4-hydroxy-3-methoxyphenyl)acrylate]

SMILES: C=CCc1ccc(OC(=O)/C=C/c2ccc(O)c(O)c2)c(OC)c1 [c27, 4-allyl-2-methoxyphenyl (E)-3-(3,4-dihydroxyphenyl)acrylate]
- inhibition at 64 µM [1, 6]: 81.5%
- inhibition type ([2]; Lineweaver–Burk plots): mixed-type
- reversibility of inhibition ([2]; ν versus [E] plots): reversible
- Random Coil (%) ([3]; [Tyrosinase]:[c27] 1:1): 28.23%
- α-Helix (%) ([3]; [Tyrosinase]:[c27] 1:1): 7.12%
- β-Sheet (%) ([3]; [Tyrosinase]:[c27] 1:1): 49.00%
- β-Turn (%) ([3]; [Tyrosinase]:[c27] 1:1): 17.63%
- Random Coil (%) ([3]; [Tyrosinase]:[c27] 1:2): 28.12%
- α-Helix (%) ([3]; [Tyrosinase]:[c27] 1:2): 9.56%
- β-Sheet (%) ([3]; [Tyrosinase]:[c27] 1:2): 49.23%
- β-Turn (%) ([3]; [Tyrosinase]:[c27] 1:2): 18.37%
- Random Coil (%) ([3]; [Tyrosinase]:[c27] 1:3): 27.94%
- α-Helix (%) ([3]; [Tyrosinase]:[c27] 1:3): 9.85%
- β-Sheet (%) ([3]; [Tyrosinase]:[c27] 1:3): 49.27%
- β-Turn (%) ([3]; [Tyrosinase]:[c27] 1:3): 18.55%
- reduction of intensity of peak 1 (λex/λem = 280 nm/340 nm) ([4]; Tyr and Trp residues): 21.47%
- reduction of intensity of peak 2 (λex/λem = 230 nm/335 nm) ([4]; polypeptide strand transition): 32.71%
- number of binding sites (in words) [5]: one
- quenching mechanism [5]: static
- KSV (Stern–Volmer quenching constant) ([5]; 304 K): 47700 L/mol
- Kq (quenching rate constant) ([5]; 304 K): 4.77e+12 L/mol
- n (number of binding sites) ([5]; 304 K): 0.59
- KSV (Stern–Volmer quenching constant) ([5]; 307 K): 43200 L/mol
- Kq (quenching rate constant) ([5]; 307 K): 4.32e+12 L/mol
- n (number of binding sites) ([5]; 307 K): 0.86
- KSV (Stern–Volmer quenching constant) ([5]; 310 K): 42900 L/mol
- Kq (quenching rate constant) ([5]; 310 K): 4.29e+12 L/mol
- n (number of binding sites) ([5]; 310 K): 0.99

- inhibition at 64 µM [1, 6]: 19 ± 0.2%
SMILES: C=CCc1ccc(OC(=O)/C=C/c2ccc(Cl)c(F)c2)c(OC)c1 [c28, 4-allyl-2-methoxyphenyl (E)-3-(4-chloro-3-fluorophenyl)acrylate]

- inhibition at 64 µM [1, 6]: 4 ± 1%
SMILES: C=CCc1ccc(OC(=O)/C=C/c2ccc3c(c2)OCO3)c(OC)c1 [c29, 4-allyl-2-methoxyphenyl (E)-3-(benzo[d][1,3]dioxol-5-yl)acrylate]

From publication PMC10460039 (Molecules, 2023)
